Measurements from patent US20040024024A1, “Aromatic sulfone hydroxamates and their use as protease inhibitors” (priority 2001, published 2004).
Each block holds one molecule with its values, some of them ahead of it.

Columns and labels:
Assay in all cases: In vitro MMP inhibition, IC50 determination (fluorogenic substrate I)
Type in all cases: biochemical
Human recombinant MMP-14 = biological target: T1, Human recombinant MMP-14 (Homo sapiens, UniProt P50281)
T1 construct: The catalytic domain enzyme was expressed in E. coli inclusion bodies, solubilized in urea; made in house
How it was run: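 Catalytic-domain MMP-14, expressed in E. coli and refolded, activated with APMA or trypsin; compounds incubated at room temperature with 4 μM fluorogenic substrate I (MCA-PLGL-Dpa-AR-NH2) in Tris/NaCl/CaCl2 buffer, pH 7.5. Fluorescence at ex 328/em 415 nm; IC50 from loss of fluorescence versus inhibitor concentration.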

Human recombinant MMP-2 = biological target: T2, Human recombinant MMP-2 (Homo sapiens, UniProt P08253)
T2 construct: made in house; host or cells: MMP-2-transfected p2AHT2 cells
T2 sequence (P08253 110-660): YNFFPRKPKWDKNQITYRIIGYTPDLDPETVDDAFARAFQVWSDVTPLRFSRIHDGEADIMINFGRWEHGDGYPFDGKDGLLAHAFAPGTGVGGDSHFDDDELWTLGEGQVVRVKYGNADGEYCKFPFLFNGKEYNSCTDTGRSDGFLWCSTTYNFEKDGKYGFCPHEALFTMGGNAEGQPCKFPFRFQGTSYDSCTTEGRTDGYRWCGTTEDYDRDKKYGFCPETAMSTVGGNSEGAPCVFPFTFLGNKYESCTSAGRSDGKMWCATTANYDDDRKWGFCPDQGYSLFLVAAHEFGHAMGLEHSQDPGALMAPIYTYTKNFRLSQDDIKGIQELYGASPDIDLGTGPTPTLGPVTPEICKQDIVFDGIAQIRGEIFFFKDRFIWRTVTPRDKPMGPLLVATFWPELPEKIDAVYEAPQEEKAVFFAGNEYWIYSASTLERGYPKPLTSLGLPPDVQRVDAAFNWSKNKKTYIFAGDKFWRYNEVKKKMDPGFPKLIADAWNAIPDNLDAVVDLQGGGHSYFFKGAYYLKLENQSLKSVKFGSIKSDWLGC
How it was run: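 APMA- or trypsin-activated recombinant MMP-2 was incubated at room temperature with serial inhibitor dilutions in Tris buffer pH 7.5 (100 mM NaCl, 10 mM CaCl2, 0.05% Brij), with DMSO from 1% stocks, and 4 μM substrate I. Cleavage was read by fluorescence at 328/415 nm; IC50 was taken from the loss of fluorescence versus inhibitor concentration.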

Human recombinant MMP-9 = biological target: T3, Human recombinant MMP-9 (Homo sapiens, UniProt P14780)
T3 construct: made in house; host or cells: MMP-9-transfected HT1080 cells (spent media)
T3 sequence (P14780 107-707 limits assumed): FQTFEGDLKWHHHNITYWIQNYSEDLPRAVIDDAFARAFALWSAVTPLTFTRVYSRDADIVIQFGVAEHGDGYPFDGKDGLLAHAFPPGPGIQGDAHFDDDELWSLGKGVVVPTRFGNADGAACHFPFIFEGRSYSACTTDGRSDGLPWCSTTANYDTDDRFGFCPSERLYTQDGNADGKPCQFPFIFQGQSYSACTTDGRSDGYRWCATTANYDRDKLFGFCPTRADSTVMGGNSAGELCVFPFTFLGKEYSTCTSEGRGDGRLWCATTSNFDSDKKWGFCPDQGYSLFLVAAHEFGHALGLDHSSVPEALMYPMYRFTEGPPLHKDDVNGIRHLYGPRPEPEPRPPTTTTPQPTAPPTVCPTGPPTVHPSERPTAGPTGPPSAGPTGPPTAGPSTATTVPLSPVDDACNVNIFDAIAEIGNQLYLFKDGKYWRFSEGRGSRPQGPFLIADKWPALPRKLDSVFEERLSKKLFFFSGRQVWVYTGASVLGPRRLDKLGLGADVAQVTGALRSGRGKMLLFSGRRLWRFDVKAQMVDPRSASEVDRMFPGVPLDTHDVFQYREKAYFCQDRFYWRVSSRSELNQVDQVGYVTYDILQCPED
How it was run: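 MMP-9 proenzyme purified from transfected HT1080 cell media, activated with APMA or trypsin. Compound dilutions in pH 7.5 Tris/NaCl/CaCl2 buffer with 0.05% polyoxyethylene 23 lauryl ether, incubated at room temperature with 4 μM MCA/Dpa substrate I. IC50 from fluorescence loss (ex 328, em 415 nm) versus inhibitor concentration.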

Human recombinant MMP-13 = biological target: T4, Human recombinant MMP-13 (Homo sapiens, UniProt P45452)
T4 construct: made in house; host or cells: baculovirus / insect cells
How it was run: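 Fluorescence at 415 nm (excitation 328 nm) reports Gly-Leu cleavage of 4 μM quenched methoxycoumarin peptide substrate I. Human recombinant MMP-13, activated by trypsin or APMA, was incubated at room temperature with varied inhibitor concentrations in pH 7.5 Tris/NaCl/CaCl2 buffer; IC50 derived from reduced fluorescence.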

Human recombinant MMP-1 = biological target: T5, Human recombinant MMP-1 (Homo sapiens, UniProt P03956)
T5 construct: made in house; host or cells: MMP-1-transfected HT-1080 cells (spent media)
T5 sequence (P03956 100-469): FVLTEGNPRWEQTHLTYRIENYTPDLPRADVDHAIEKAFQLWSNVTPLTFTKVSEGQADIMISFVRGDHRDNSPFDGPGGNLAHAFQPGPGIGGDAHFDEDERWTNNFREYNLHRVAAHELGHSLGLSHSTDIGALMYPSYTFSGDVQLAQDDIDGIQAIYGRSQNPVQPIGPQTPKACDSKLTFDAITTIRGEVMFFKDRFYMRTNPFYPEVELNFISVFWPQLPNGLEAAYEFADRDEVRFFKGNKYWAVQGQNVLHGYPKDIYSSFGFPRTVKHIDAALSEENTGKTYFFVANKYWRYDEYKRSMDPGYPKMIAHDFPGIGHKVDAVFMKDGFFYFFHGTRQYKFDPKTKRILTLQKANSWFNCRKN
How it was run: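 APMA- or trypsin-activated enzyme, purified from spent media of transfected HT-1080 cells, incubated at room temperature with 4 μM MCA-Pro-Leu-Gly-Leu-Dpa-Ala-Arg-NH2 and graded inhibitor in Tris buffer pH 7.5 (10 mM CaCl2, 0.05% Brij). Cleavage read by fluorescence (ex 328/em 415 nm); IC50 from fluorescence reduction versus inhibitor concentration.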

[1] = value outside parentheses (Ki in parenthesis)
[2] = substrate (I) 4 μM, room temperature, values not in parenthesis

Compound: O=C(Cc1ccsc1)NCCOc1ccc(S(=O)(=O)C2(C(=O)NO)CCOCC2)cc1 [Example 601]
IC50 (Human recombinant MMP-14; value outside parentheses): 2060 nM
IC50 (Human recombinant MMP-2; value outside parentheses): 1.9 nM
IC50 (Human recombinant MMP-9; value outside parentheses): 42.6 nM
IC50 (Human recombinant MMP-13; value outside parentheses): 1.3 nM
IC50 (Human recombinant MMP-1; value outside parentheses): 4920 nM

Compound: COc1cc(COCCCOc2ccc(S(=O)(=O)C3(C(=O)NO)CCOCC3)cc2)cc(OC)c1 [Example 453]
IC50 (Human recombinant MMP-14; [1]): 5000 nM
IC50 (Human recombinant MMP-2; [1]): 13 nM
IC50 (Human recombinant MMP-9; [1]): 800 nM
IC50 (Human recombinant MMP-13; [1]): 3 nM
IC50 (Human recombinant MMP-1; [1]): > 10000 nM

Compound: COC(=O)c1cccc(OCCOc2ccc(S(=O)(=O)C3(C(=O)NO)CCOCC3)cc2)c1 [Example 668]
IC50 (Human recombinant MMP-14; value outside parentheses): 2110 nM
IC50 (Human recombinant MMP-2; value outside parentheses): 101 nM
IC50 (Human recombinant MMP-9; value outside parentheses): 288 nM
IC50 (Human recombinant MMP-13; value outside parentheses): 1.53 nM
IC50 (Human recombinant MMP-1; value outside parentheses): 7660 nM

Compound: O=C(NO)C1(S(=O)(=O)c2ccc(OCCCSc3nc4ccccc4o3)cc2)CCN(C2CC2)CC1 [Example 203]
IC50 (Human recombinant MMP-14; value outside parenthesis): > 10000 nM
IC50 (Human recombinant MMP-2; value outside parenthesis): 4.2 nM
IC50 (Human recombinant MMP-9; value outside parenthesis): 6 nM
IC50 (Human recombinant MMP-13; value outside parenthesis): 1 nM
IC50 (Human recombinant MMP-1; value outside parenthesis): > 10000 nM

Compound: O=C(NO)C1(S(=O)(=O)c2ccc(OCCCc3nnc(-c4ccc(OC(F)(F)F)cc4)o3)cc2)CCOCC1 [Example 200]
IC50 (Human recombinant MMP-14; value outside parenthesis): > 10000 nM
IC50 (Human recombinant MMP-2; value outside parenthesis): 84 nM
IC50 (Human recombinant MMP-9; value outside parenthesis): 1210 nM
IC50 (Human recombinant MMP-13; value outside parenthesis): 0.6 nM
IC50 (Human recombinant MMP-1; value outside parenthesis): 7500 nM

Compound: O=C(NO)C1(S(=O)(=O)c2ccc(OCCSc3nc4c(Cl)cc(Cl)cc4o3)cc2)CCOCC1 [Example 409]
IC50 (Human recombinant MMP-14; [1]): 5640 nM
IC50 (Human recombinant MMP-2; [1]): 23 nM
IC50 (Human recombinant MMP-9; [1]): 160 nM
IC50 (Human recombinant MMP-13; [1]): 1 nM
IC50 (Human recombinant MMP-1; [1]): > 10000 nM

Compound: COCCN1CCC(C(=O)NO)(S(=O)(=O)c2ccc(OCCCCC(=O)c3ccc(OC)cc3)cc2)CC1 [Example 245]
IC50 (Human recombinant MMP-14; value outside parenthesis): > 10000 nM
IC50 (Human recombinant MMP-2; value outside parenthesis): 8.6 nM
IC50 (Human recombinant MMP-9; value outside parenthesis): 61.1 nM
IC50 (Human recombinant MMP-13; value outside parenthesis): 0.2 nM
IC50 (Human recombinant MMP-1; value outside parenthesis): > 10000 nM

Compound: COc1ccc(C(=O)C(C)CCCOc2ccc(S(=O)(=O)C3(C(=O)NO)CCOCC3)cc2)cc1 (stereo not shown) [Example 26, tetrahydro-N-hydroxy-4-[[4-[[5-(4-methyloxyphenyl)-4-methyl-5-oxopentyl]oxy]phenyl]sulfonyl]-2H-pyran-4-carboxamide]
IC50 (Human recombinant MMP-14; [2]): > 10000 nM
IC50 (Human recombinant MMP-2; [2]): 52 nM
IC50 (Human recombinant MMP-9; [2]): 4430 nM
IC50 (Human recombinant MMP-13; [2]): 3.4 nM
IC50 (Human recombinant MMP-1; [2]): > 10000 nM

Compound: O=C(NO)C1(S(=O)(=O)c2ccc(OCCCSCc3cccc(OC(F)(F)F)c3)cc2)CCOCC1 [Example 441]
IC50 (Human recombinant MMP-14; [1]): 2290 nM
IC50 (Human recombinant MMP-2; [1]): 13 nM
IC50 (Human recombinant MMP-9; [1]): 110 nM
IC50 (Human recombinant MMP-13; [1]): 2 nM
IC50 (Human recombinant MMP-1; [1]): 9000 nM

Now from value to molecule:

IC50 (Human recombinant MMP-14; [1]): > 10000 nM
IC50 (Human recombinant MMP-2; [1]): 25.1 nM
IC50 (Human recombinant MMP-9; [1]): 1150 nM
IC50 (Human recombinant MMP-13; [1]): 1.8 nM
IC50 (Human recombinant MMP-1; [1]): > 10000 nM
Compound: O=C(CCCOc1ccc(S(=O)(=O)C2(C(=O)NO)CCOCC2)cc1)c1cccc(-c2ccccc2)c1 [Example 353]

IC50 (Human recombinant MMP-14; value outside parenthesis): > 10000 nM
IC50 (Human recombinant MMP-2; value outside parenthesis): 1170 nM
IC50 (Human recombinant MMP-9; value outside parenthesis): > 10000 nM
IC50 (Human recombinant MMP-13; value outside parenthesis): 5.8 nM
IC50 (Human recombinant MMP-1; value outside parenthesis): > 10000 nM
Compound: Cc1cc(-c2cccc(CCOc3ccc(S(=O)(=O)C4(C(=O)NO)CCOCC4)cc3)c2)ccc1F [Example 120]

IC50 (Human recombinant MMP-14; value outside parentheses): 2510 nM
IC50 (Human recombinant MMP-2; value outside parentheses): 24.9 nM
IC50 (Human recombinant MMP-9; value outside parentheses): 49.1 nM
IC50 (Human recombinant MMP-13; value outside parentheses): 5.58 nM
IC50 (Human recombinant MMP-1; value outside parentheses): 3920 nM
Compound: O=C(NO)C1(S(=O)(=O)c2ccc(OCCOCc3ccccc3)cc2)CCOCC1 [Example 653]

IC50 (Human recombinant MMP-14; value outside parenthesis): > 10000 nM
IC50 (Human recombinant MMP-2; value outside parenthesis): 114 nM
IC50 (Human recombinant MMP-9; value outside parenthesis): 127 nM
IC50 (Human recombinant MMP-13; value outside parenthesis): 3.7 nM
IC50 (Human recombinant MMP-1; value outside parenthesis): > 10000 nM
Compound: CCCc1ccc(-c2nc(CCCOc3ccc(S(=O)(=O)C4(C(=O)NO)CCOCC4)cc3)oc2C)cc1 [Example 207]

IC50 (Human recombinant MMP-14; value outside parentheses): > 10000 nM
IC50 (Human recombinant MMP-2; value outside parentheses): 136 nM
IC50 (Human recombinant MMP-9; value outside parentheses): 417 nM
IC50 (Human recombinant MMP-13; value outside parentheses): 0.6 nM
IC50 (Human recombinant MMP-1; value outside parentheses): > 10000 nM
Compound: O=C(NO)C1(S(=O)(=O)c2ccc(OCCCc3cc(-c4ccc(F)c(F)c4)cs3)cc2)CCOCC1 [Example 580]
